Target: T1, PecS (Agrobacterium fabrum, UniProt Q7D1T4)
T1 construct: full length, N-terminal His6-tag kept (pET100), E. coli BL21(DE3)pLysS; 18,923 Da tagged; dimer by known biology of MarR family
Test: DNase I footprinting of pecS-pecM DNA, loss of PecS protection
Conditions: 86 nM PecS, 250 mM Tris pH 8.0, 100 mM NaCl, room temperature, relief of DNA binding

T1 sequence (Q7D1T4 entry or part of it): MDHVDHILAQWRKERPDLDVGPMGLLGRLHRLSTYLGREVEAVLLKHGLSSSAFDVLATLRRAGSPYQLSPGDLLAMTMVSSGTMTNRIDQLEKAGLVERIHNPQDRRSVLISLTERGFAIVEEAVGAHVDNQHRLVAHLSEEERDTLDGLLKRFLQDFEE

SMILES	DNase I footprinting of pecS-pecM DNA, loss of PecS protection (2.5 mM urate (dissolved in 0.4 M NaOH))	DNase I footprinting of pecS-pecM DNA, loss of PecS protection (10 mM xanthine (dissolved in 0.4 M NaOH))
O=c1[nH]c(=O)c2[nH]c(=O)[nH]c2[nH]1 [urate]	This result indicates a direct interaction between these purines and PecS	
O=c1[nH]c(=O)c2[nH]cnc2[nH]1 [xanthine]		This result indicates a direct interaction between these purines and PecS
